According to ChEMBL document CHEMBL2046383, “Hyrtioreticulins A-E, indole alkaloids inhibiting the ubiquitin-activating enzyme, from the marine sponge Hyrtios reticulatus” (Bioorg Med Chem, 2012):
Activity calls are given as the source filed them. The calls are words filed in the database; no cut-off is given here.

Columns and labels:
[1] = system: HeLa; experiment: Cytotoxicity against human HeLa cells at 50 ug/mL; format: functional, cell-based
[2] = biological target: T1, Ubiquitin-like modifier-activating enzyme 1 (Homo sapiens) (UniProt P22314); experiment: Inhibition of FLAG-tagged ubiquitin-activating enzyme E1 assessed as inhibition of GST-ubiquitin/FLAG-E1 intermediate formation at 100 uM by Western blot analysis
T1 sequence (whole entry): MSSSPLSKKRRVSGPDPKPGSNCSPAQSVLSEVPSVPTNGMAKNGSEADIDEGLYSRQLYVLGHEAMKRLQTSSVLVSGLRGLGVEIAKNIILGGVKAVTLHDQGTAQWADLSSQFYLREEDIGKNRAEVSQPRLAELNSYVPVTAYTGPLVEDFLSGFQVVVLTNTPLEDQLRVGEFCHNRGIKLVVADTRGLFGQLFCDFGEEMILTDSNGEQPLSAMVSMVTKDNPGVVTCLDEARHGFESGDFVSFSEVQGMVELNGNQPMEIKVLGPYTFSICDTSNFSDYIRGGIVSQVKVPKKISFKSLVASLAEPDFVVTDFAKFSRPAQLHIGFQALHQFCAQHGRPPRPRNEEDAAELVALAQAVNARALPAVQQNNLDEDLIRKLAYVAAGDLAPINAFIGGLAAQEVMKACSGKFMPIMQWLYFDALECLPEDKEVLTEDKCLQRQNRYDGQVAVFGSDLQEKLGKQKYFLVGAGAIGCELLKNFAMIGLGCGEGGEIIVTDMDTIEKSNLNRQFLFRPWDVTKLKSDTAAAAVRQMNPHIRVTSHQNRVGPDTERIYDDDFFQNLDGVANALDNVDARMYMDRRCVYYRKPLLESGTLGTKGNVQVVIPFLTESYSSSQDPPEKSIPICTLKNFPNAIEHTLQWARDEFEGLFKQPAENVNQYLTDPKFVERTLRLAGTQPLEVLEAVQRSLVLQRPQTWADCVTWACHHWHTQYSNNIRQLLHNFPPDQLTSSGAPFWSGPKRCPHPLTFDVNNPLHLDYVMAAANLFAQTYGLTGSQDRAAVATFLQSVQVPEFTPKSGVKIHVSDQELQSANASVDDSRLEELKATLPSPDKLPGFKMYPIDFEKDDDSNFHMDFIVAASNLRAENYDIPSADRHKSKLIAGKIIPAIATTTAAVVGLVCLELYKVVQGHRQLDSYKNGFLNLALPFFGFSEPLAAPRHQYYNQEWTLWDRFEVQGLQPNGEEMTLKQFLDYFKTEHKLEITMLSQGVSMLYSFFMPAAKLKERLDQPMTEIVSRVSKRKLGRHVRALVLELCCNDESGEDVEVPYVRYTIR

[3] = biological target: T1, Ubiquitin-like modifier-activating enzyme 1 (Homo sapiens); experiment: (§1) Inhibition of FLAG-tagged ubiquitin-activating enzyme E1 assessed as inhibition of GST-ubiquitin/FLAG-E1 intermediate formation by Western blot analysis
[4] = biological target: T1, Ubiquitin-like modifier-activating enzyme 1 (Homo sapiens); experiment: Inhibition of GST-tagged ubiquitin binding to FLAG-tagged E1 at 50 uM after 20 mins by immunoprecipitation analysis
[5] = biological target: T2, Ubiquitin-like modifier-activating enzyme 1 (Homo sapiens, UniProt P22314); experiment: as §1
T2 sequence (P22314 whole entry): T1 sequence (whole entry)

[6] = biological target: T2, Ubiquitin-like modifier-activating enzyme 1; experiment: Inhibition of ubiquitin-activating enzyme E1
[7] = biological target: T2, Ubiquitin-like modifier-activating enzyme 1; experiment: Inhibition of recombinant fluorescein-tagged E1 assessed as inhibition of ubiquitin-E1 adduct formation incubated for 15 mins prior to ATP addition measured after 5 mins by SDS PAGE analysis

| inhibition [4] | Compound | Activity [1] | other results |
| --- | --- | --- | --- |
| Active | C[C@@H](CC(=O)NC(=O)c1coc(/C=C/CCCCCCCCC(=O)O)cc1=O)C(=O)O | – | – |
| inactive | O=C(O)[C@@H]1Cc2c([nH]c3ccc(O)cc23)[C@H](Cc2c[nH]cn2)N1 [HYRTIORETICULIN B] | inactive | inhibition [3]: Dose-dependent effect; IC50 [5]: 35 µM |

Continued, compound first:

| Compound | inhibition [4] | Activity [1] | other results |
| --- | --- | --- | --- |
| C[C@H]1N[C@H](C(=O)O)Cc2c1[nH]c1ccc(O)cc21 | – | inactive | – |
| C[C@@H]1N[C@H](C(=O)O)Cc2c[nH]c3ccc(O)c1c23 | – | inactive | – |
| C[C@H]1N[C@@H](C(=O)O)Cc2c1[nH]c1ccc(O)cc21 | – | inactive | inhibition [2]: Active |
| O=C(O)[C@@H]1Cc2c([nH]c3ccc(O)cc23)[C@@H](Cc2c[nH]cn2)N1 | inactive | inactive | inhibition [3]: Dose-dependent effect |
| C[C@H]1N[C@H](C(=O)O)Cc2c[nH]c3ccc(O)c1c23 | – | inactive | – |
| O=C(O)[C@@H]1Cc2c([nH]c3ccc(O)cc23)[C@@H](Cc2cnc[nH]2)N1 [HYRTIORETICULIN A] | – | – | IC50 [5]: 2.4 µM |
| CC(C)(O)/C=C/[C@@]12[C@H]3[C@@H](O)[C@@H]4O[C@@H]4[C@]1(O)OC(C)(C)[C@H]2C=C1C(=O)[C@H]2O[C@H]2[C@H](O)[C@H]13 [PANEPOPHENANTHRINE] | – | – | IC50 [6]: 40 µM |
| CCCCCCCC(=O)SCC/C=C/[C@@H]1CC(=O)NCc2nc(cs2)C2=N[C@@](C)(CS2)C(=O)N[C@@H](C(C)C)C(=O)O1 [LARGAZOLE] | – | – | IC50 [7]: 29 µM |
